“And” between values parts separate entries of the source, which are not always exact repeats. Equal values may be shown once.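 The compound was tested at five concentrations on cells cultured in 96-well plates, with a 48-hour exposure period. GI50 = concentration required for 50% inhibition of growth. TGI: total growth inhibition.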
Tests used:
Experiment in all cases: NCI-60 cell line screen, 48 h
SK-OV-3 ovarian = system: SK-OV-3 ovarian
HS 578T breast = system: HS 578T breast
MCF7 breast = system: MCF7 breast
HCC-2998 colon = system: HCC-2998 colon
HOP-92 NSCLC = system: HOP-92 NSCLC
IGROV1 ovarian = system: IGROV1 ovarian
OVCAR-5 ovarian = system: OVCAR-5 ovarian
SW-620 colon = system: SW-620 colon
SR leukemia = system: SR leukemia
OVCAR-3 ovarian = system: OVCAR-3 ovarian

Row | SMILES | GI50 (SK-OV-3 ovarian) [µM] | TGI (SK-OV-3 ovarian) | TGI (HS 578T breast) [µM] | TGI (MCF7 breast) [µM] | GI50 (HCC-2998 colon) [µM] | TGI (HCC-2998 colon) | GI50 (HOP-92 NSCLC) [µM] | TGI (HOP-92 NSCLC) | GI50 (IGROV1 ovarian) [µM] | TGI (IGROV1 ovarian) [µM] | GI50 (OVCAR-5 ovarian) [µM] | TGI (OVCAR-5 ovarian) | GI50 (SW-620 colon) [µM] | TGI (SW-620 colon) | GI50 (SR leukemia) [µM] | TGI (SR leukemia) | GI50 (OVCAR-3 ovarian) [µM] | GI50 (HS 578T breast) [µM] | GI50 (MCF7 breast) [µM] | TGI (OVCAR-3 ovarian) [µM]
1 | Cc1ccc(/C=C2\CNC/C(=C\c3ccc(C)cc3)C2=O)cc1 | 3.81 | 6.9 µM and 22.1 µM | > 100 | > 100 | 1.42 | 2.77 µM and 3.07 µM | 2.21 | 5.49 µM and 14.5 µM | 3.64 | 4.92 | 1.89 | 3.56 µM and 33.9 µM | 0.473 | 2.11 µM and 8.36 µM | 0.565 | 2.87 µM and 1.83 µM | 1.27 |  |  | 
2 | COc1ccc2cc(-c3c(-c4ccncc4)nc(-c4ccc(S(C)=O)cc4C)n3C)ccc2c1 (stereo not given) | 11.3 | > 25 µM | > 25 | > 25 | > 25 | > 25 µM | 4.66 | > 25 µM | 11.1 | > 25 | > 25 | > 25 µM | > 25 | > 25 µM |  |  | 14.3 | > 25 | 14.1 | > 25
3 | COc1ccc(/C=C(/C(=O)n2cnnn2)c2cc(OC)c(OC)c(OC)c2)cc1 | 5.26 | > 100 µM | > 100 | > 100 |  |  | 6.71 | > 100 µM | 4.69 | > 100 | 5.78 | > 100 µM | 3.78 | > 100 µM | 0.752 | > 100 µM | 2.37 | 4.07 | 2.63 | 5.94
4 | COc1ccc(/C=C/C(=O)C(C)(C)Br)cc1 |  | 63.1 µM | 37.8 | 19.1 |  |  |  | 27.9 µM |  | 5.76 |  | 28.1 µM |  | 5.37 µM |  | 13.6 µM |  |  |  | 35
5 | COc1cc([C@H]2c3[nH]c4ccccc4c3C[C@H]3COC(=O)N32)cc(OC)c1O |  |  | 44.7 | 37.1 |  | 27 µM |  | > 88 µM |  | > 86.3 |  | > 100 µM |  | > 70 µM |  | 0.285 µM |  |  |  | 
6 | CCOCNc1ccc(N2C(=O)/C(=C/c3ccc(N(CC)CC)cc3)N=C2c2ccccc2)cc1 | 26.1 | 82.9 µM | > 100 | > 100 | > 100 | > 100 µM | 2.25 | 12 µM |  |  | > 100 | > 100 µM | 41.5 | > 100 µM | 6.5 | > 100 µM | 28.3 | 17 | 36.5 | > 100
7 | COC(=O)[C@H](Cc1ccccc1)NC(=O)c1csc([C@@H](C[C@H](C(C)C)N(C)C(=O)[C@@H](NC(=O)[C@H]2CCCN2C)C2CC2)OC(C)=O)n1 | 1.04 | > 33.3 µM | > 33.3 | > 33.3 | 1.48 | > 33.3 µM | 0.463 | > 9.56 µM | 0.327 | > 33.3 | 1.66 | > 33.3 µM | 0.235 | > 33.3 µM | 0.0103 | > 33.3 µM |  | 0.122 | 0.124 | 
8 | Fc1c[c-]c(-c2ccccn2)c(F)c1.[CH3-].[Pt+2].c1ccc(P(C[PH+](c2ccccc2)c2ccccc2)c2ccccc2)cc1 | 0.816 | 6.03 µM | 2.9 | 2.98 | 0.484 | 1.29 µM | 0.512 | 1.34 µM | 0.47 | 1.86 | 0.98 | 2.54 µM | 0.52 | 1.49 µM |  |  | 0.411 | 0.864 | 0.577 | 1.2
9 | O=C(Nc1ccccc1O)c1ccc(CNC(=O)c2ccsc2Nc2ccnc(C(F)(F)F)c2)cc1 | 5.59 | 45.6 µM | 16.2 | 10.4 | 1.84 | 4.33 µM |  |  | 2.8 | 13.5 | 2.05 | 14.7 µM | 2.5 | 10.5 µM | 2.81 | 29.1 µM | 1.85 | 2.71 | 2.03 | 4.8
10 | CCC(=O)c1cc([N+](=O)[O-])c(Br)s1 | 19.4 | 33.9 µM | 85 | 12.3 | 15.2 | 31 µM | 1.96 | 4.8 µM |  |  | 16.6 | 32.1 µM | 1.65 | 3.19 µM | 1.2 | 3.71 µM | 1.91 | 19.5 | 2.89 | 3.32
11 | Nc1ccn([C@@H]2C(F)=C(CO)[C@@H](O)[C@H]2O)c(=O)n1 | 4.95 | > 100 µM | > 100 | > 100 | 0.962 | > 100 µM |  |  | 2.88 | > 100 | 12.2 | > 100 µM | 0.546 | > 100 µM | 0.443 | > 100 µM | 4.17 | 12.3 | 0.362 | > 100
12 | CC(C)(C)[Si](C)(C)OCC1OC(n2cnc3c(N)ncnc32)C(O)C1O (stereo not given) |  | > 100 µM | > 100 | > 100 |  |  |  |  |  | > 100 |  | > 100 µM |  | > 100 µM |  | > 100 µM |  |  |  | > 100
13 | COc1ccc2[nH]c(-c3ccccc3)cc2c1 | > 100 | > 100 µM | > 100 | > 100 | > 100 | > 100 µM | 70 | > 100 µM | > 100 | > 100 | > 100 | > 100 µM | > 100 | > 100 µM |  |  | > 100 | > 100 | 86.6 | > 100
14 | Cc1ccc(-n2c3c(c4c(CN5CCOCC5)c(O)ccc42)CCc2ccccc2C3=O)cc1 | > 100 | > 100 µM | > 100 | > 100 | > 100 | > 100 µM | 68.2 | > 100 µM | 23.3 | > 100 | > 100 | > 100 µM | > 100 | > 100 µM |  |  | 71.2 | > 100 | > 100 | > 100
15 | COc1ccc2c(c1)nc1n2C(c2ccc(F)cc2)SC1 (stereo not given) | 22.4 | > 100 µM | 70.5 | > 100 | 18.4 | 57.1 µM | 23 | > 100 µM | 26.5 | 99.4 | 33.6 | > 100 µM | 32.3 | > 100 µM |  |  | 22.6 | 28.3 | 18.5 | 65.4

— PubChem BioAssay (NCI)
